Experimental data: patent US8729048B2, “Methods and materials for assessing responsiveness to PARP inhibitors and platinating agents” (Mayo Foundation for Medical Education and Research, priority 2011, dated 2014)

Experiments:
Type in all cases: cell-based
[1] = tested on: MMEJ activity in PEO4 cells; test: Microhomology mediated end-joining assay (MMEJ), PEO4; settings: 72 hours
Excerpt: FIG. 11. PARP inhibition fails to induce microhomology-mediated end-joining (MMEJ). (A) Schematic of the reporter substrate used to assay for MMEJ activity. Cleavage of pDVG94 with EcoRV and AfeI creates a blunt-ended linearized substrate, with identical 6-bp ends. Direct joining by NHEJ will result in maintenance of both repeats, but MMEJ will excise one repeat, introducing a new BstXI site. PCR across recircularized substrate produces a product of 180 bp, which can be cut into 120 and 60 bp fragments if the BstXI site was created. This figure is adapted from a figure provided elsewhere (Verkaik et al., Eur. J. Immunol., 32:701-709 (2002)). (B) and (C) Agarose gel from a representative MMEJ assay. PEO1 (B, lanes 1-10) and PEO4 (C) cells were treated with increasing concentrations of ABT-888 following transfection with linearized pDVG94. The size of the initial PCR product (180 bp) as well as BstXI cleaved products (120 bp and 60 bp) are indicated. As a positive and negative control, a cell line previously documented to undergo MMEJ (Lou et al., J. Biol. Chem., 279:46359-46362 (2004)), M059J (B, lanes 11 and 12), and a MMEJ-negative line, M059J+DNA-PKcs (B, lanes 13 and 14) were used. Images were captured from one gel and cut to create two panels. […]

[2] = tested on: BRCA2-positive PEO4 cells; test: Clonogenic assay, PEO4; settings: 72 hours
Procedure: FIG. 5. NHEJ is a major contributor to PARP inhibitor effects in BRCA2-deficient cells. (A) Western blots showing knockdown of Ku80 in PEO1 and PEO4 cells. (B) Clonogenic survival of PEO1 and PEO4 cells from (A), which were treated with the indicated ABT-888 concentration for 72 hours, washed, and allowed to form colonies. (C) Western blots following treatment with siRNA targeting luciferase (control), Ku80, PARP1, or both Ku80 and PARP1. (D) Clonogenic viability of PEO 1 and PEO4 cells from (C). Following knockdown, cells were plated onto triplicate plates and allowed to form colonies. (E) Clonogenic survival of PEO1 cells following Artemis knockdown. After treatment with the indicated siRNA, plates were treated with indicated concentration of ABT-888 for 72 hours, washed, and allowed to form colonies. Inset, Western blots showing knockdown using luciferase (control) or Artemis siRNAs in PEO1 cells. (F) Clonogenic survival of PEO1 and PEO4 cells treated for 72 hours with ABT-888 in combination with diluent or 500 nM DNA-PKi. All results are reported as means of triplicate plates±SEM, and are representative of 3 independent experiments.
Colony formation assays were performed on siRNA-transfected PEO1 and PEO4 cells 48 hours after the second transfection. Cells were trypsinized and plated at 750 cells/plate in triplicate 60-mm dishes containing medium A, allowed to grow 10-14 days, and stained with Coomassie Brilliant Blue. Colonies containing ≧50 cells were scored manually. To assess methyl methanesulfonate (MMS) sensitivity, PEO1 or PEO4 cells were incubated for 48 hours after the second siRNA treatment, plated onto 60-mm dishes, allowed to adhere for 4 hours, exposed to the indicated concentration of MMS (Sigma-Aldrich) for 1 hour, washed with sterile RPMI 1640, and allowed to grow into colonies in medium A. For drug treatment, cells (without siRNA) were allowed to adhere for 4-6 hours, then treated with the indicated concentrations of ABT-888 and/or AZ12594248 for 72 hours. […]

[3] = tested on: BRCA1-deficient HCC1937 cells; test: Clonogenic assay, HCC1937; settings: continuous exposure, 125 nM DNA-PKi
Procedure: FIG. 6. […] (A) BRCA1-deficient HCC1937 and BRCA1-reconstituted HCC1937/BRCA1 cells were continuously exposed to ABT-888 in the presence or absence of 125 nM DNA-PKi and assayed for clonogenic survival. Inset, Western blots of cell lysates from HCC1937 and HCC1937/BRCA1. (B) Western blots of M059J and reconstituted M059J+DNA-PKcs lines showing the restoration of DNA-PK expression and the shRNA-mediated knockdown of BRCA1. (C) Clonogenic survival of shRNA transfected M059J/M059J+DNA-PKcs lines treated with ABT-888 for 72 hours. (D) Clonogenic survival of ATM-deficient GM16666 or ATM-reconstituted GM16667 fibroblasts. Cells were exposed to ABT-888 for 48 hours in the presence or absence of 250 nM DNA-PKi, washed, and allowed to form colonies. Inset, Western blots of lysates from GM16666 and GM16667 fibroblasts. […] Results are representative of 3 independent experiments.
Colony formation assays were performed on siRNA-transfected PEO1 and PEO4 cells 48 hours after the second transfection. Cells were trypsinized and plated at 750 cells/plate in triplicate 60-mm dishes containing medium A, allowed to grow 10-14 days, and stained with Coomassie Brilliant Blue. Colonies containing ≧50 cells were scored manually. […]

| Structure (SMILES) | induction of MMEJ [1] | clonogenic survival [2] | clonogenic survival with ABT-888 after Ku80 knockdown ([2]; Ku80 siRNA) | effect on ABT-888 sensitivity (clonogenic survival) [3] |
| --- | --- | --- | --- | --- |
| C[C@]1(c2nc3c(C(N)=O)cccc3[nH]2)CCCN1 [ABT-888] | not detected | resistant to the effects of ABT-888 | unaffected by Ku80 siRNA |  |
| CCN1CCN(CC(=O)Nc2ccc(-c3cccc4c(=O)cc(N5CCOCC5)oc34)c3sc4ccccc4c23)CC1 [AZ 12594248] |  |  |  | diminished ABT-888 sensitivity |
